Data taken from patent US6241963A, “Dopamine and serotonin transporter ligands and imaging agents” (priority 1996, dated 2001).
Several values for one entry are separate records, joined by “and”; a condition that tells them apart may be missing. Equal values may be shown once. Read-outs that look alike come from different tables or passages of the source.

Legend:
[1] = Partition coefficient between 1-octanol (n-octanol) and buffer; type: physicochemical
Experimental: (§1) Partition coefficients were measured by mixing each Tc-99m compound with 3 g each of 1-octanol and buffer (pH 7.0 or 7.4, 0.1 M phosphate) in a test tube. The test tube was vortexed for 3 minutes at room temperature, then centrifuged for 5 minutes. Two weighed samples (0.5 g each) from the 1-octanol and buffer layers were counted in a well counter. The partition coefficient was determined by calculating the ratio of cpm/g of octanol to that of buffer. Samples from the octanol layer were repartitioned until consistent partition coefficient values were obtained. The measurement was repeated 3 times.
as §1, with “The partition coefficient was measured” for “Partition coefficients were measured”, “mixing the” for “mixing each”, “3 min” for “3 minutes”

[2] = type: in vivo, Male Sprague-Dawley rats
Experimental: Male Sprague-Dawley rats (225-300 g) allowed free access to food and water were used for in vivo biodistribution studies. Kung, 1984, supra; Kung, 1985, supra. While under ether anesthesia, 0.2 mL of a saline solution containing 1.19a, 1.19b, 1.20a, 1.20b or 1.21 (50-100 μCi) was injected directly into the femoral vein of rats, and the rats were sacrificed by cardiac excision at various time points post-injection. The organs of interest were removed and weighed, and the radioactivity was counted with an automatic gamma counter (Packard 5000). The percentage dose per organ was calculated by a comparison of the tissue counts to suitably diluted aliquots of the injected material. Total activities of blood and muscle were calculated under the assumption that they were 7% and 40% of the total body weight, respectively.
(§2) The major criteria for determining the potential usefulness of in vivo dopamine transporter imaging agents are based on an animal biodistribution study. In this case, rats were used as an animal model. After an intravenous injection of the Tc-99m labeled compounds, the values of initial brain uptake (% dose/whole organ) at 2 minutes post intravenous injection are used to measure the ability to penetrate the intact blood-brain barrier. Compounds displaying higher brain uptake are the better agents (minimum requirement >0.1% dose in brain). The second criteria is the specific uptake in the striatum region of the brain, where dopamine transporters are located. The uptake value (% dose/gram) of the striatum (ST) is divided by the background area, cerebellum (CB; essentially devoid of dopamine transporter); the ratio of ST/CB is an indicator for specific uptake (minimum requirement for ST/CB >1.5). Five structurally similar tropane derivatives were examined in this biological study. (Tables 1.1 to 1.4).
Male Sprague-Dawley rats (225-300 g) that were allowed free access to food and water were used for in vivo biodistribution studies. (Kung, 1984, supra; Kung, 1985, supra). While under halothane anesthesia, 0.2 mL of a saline solution containing 3.24 to 3.34 ([…]) was injected directly into the femoral vein of rats, and they were sacrificed by cardiac excision at various time points post-injection. The organs of interest were removed and weighed, and the radioactivity was counted with an automatic gamma counter (Packard 5000). The percentage dose per organ was calculated by a comparison of the tissue counts to suitably diluted aliquots of the injected material. Total activities of blood and muscle were calculated under the assumption that they were 7% and 40% of the total body weight, respectively.

dopamine transporters = dopamine transporters (Rattus norvegicus, UniProt P23977); type: in vivo, Male Sprague-Dawley rats; settings: rats, iv
dopamine transporters, sequence (P23977 whole entry): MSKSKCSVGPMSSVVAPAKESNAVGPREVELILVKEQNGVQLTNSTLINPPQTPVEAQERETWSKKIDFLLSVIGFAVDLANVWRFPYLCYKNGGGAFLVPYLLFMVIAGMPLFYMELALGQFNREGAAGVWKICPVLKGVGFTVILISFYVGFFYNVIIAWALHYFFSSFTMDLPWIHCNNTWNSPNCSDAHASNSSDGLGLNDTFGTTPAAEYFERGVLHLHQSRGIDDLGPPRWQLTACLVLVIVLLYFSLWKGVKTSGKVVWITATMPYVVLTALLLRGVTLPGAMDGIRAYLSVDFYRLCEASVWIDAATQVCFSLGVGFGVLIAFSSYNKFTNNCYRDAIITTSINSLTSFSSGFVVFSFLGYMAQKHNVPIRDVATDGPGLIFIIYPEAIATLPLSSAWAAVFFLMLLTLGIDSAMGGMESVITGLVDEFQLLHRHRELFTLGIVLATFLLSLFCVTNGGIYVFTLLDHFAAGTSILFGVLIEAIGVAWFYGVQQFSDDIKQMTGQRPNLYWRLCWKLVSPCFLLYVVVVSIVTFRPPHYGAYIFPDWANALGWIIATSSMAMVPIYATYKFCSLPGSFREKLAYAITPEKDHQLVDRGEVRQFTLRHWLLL
Experimental: For dopamine transporter imaging agents, the target area of the brain is the striatum, where dopamine transporters are highly concentrated. The cerebellum region is suitable for use as the background region, because it has no dopamine transporters. The specific uptake is measured by the ratio of % dose/gram of striatum divided by % dose/gram of cerebellum (ST/CB ratio)--the higher the value, the better the specific uptake, and the more promising as a dopamine transporter imaging agent.
(§3) Regional brain distribution in rats was obtained after an injection of 1.19a, 1.19b, 1.20a, 1.20b or 1.21. Samples from different brain regions (cortex, striatum, hippocampus, and cerebellum) were dissected, weighed and counted, and the percentage dose per gram of sample was calculated by comparing the sample counts with the count of the diluted initial dose. The uptake ratio of each region was obtained by dividing the percentage dose per gram of that region by that of the cerebellum. For blocking studies, rats were injected with either β-CIT or haloperidol (iv, 1 mg/Kg) 5 min prior to injection of 1.19a. The rats were dissected and brain tissue samples were counted as described above. The specific uptake of the compound was expressed as ratio of ST/CB (% dose/g of striatum divided by the same of cerebellum).
as §2
as §3, with “3.24 to 3.34.” for “1.19a, 1.19b, 1.20a, 1.20b or 1.21.”, “3.25.” for “1.19a.”, “above.” for “above. The specific uptake of the compound was expressed as ratio of ST/CB (% dose/g of striatum divided by the same of cerebellum).”

[3] = Table 1.2, rats iv, percentage dose per organ

COC(=O)C1C(c2ccc(Cl)cc2)CC2CCC1N2CC[S][99Tc-]12(=[O])[S]CC[N+]1(C)CC[S]2 [Compound 3.25, [^99m Tc] technetium, [methyl 3-(4-chlorophenyl)-8-(2-mercaptoethyl)-8-azabicyclo [3.2.1]octane-2-carboxylato-S][[2,2'-(methylimino)bis[ethanethiolato]](2-)-N,S,S']oxo]
Partition coefficient / lipophilicity, comparison in words [1]: appears to be the best among this series of three plus one Tc complexes | Partition coefficient, n-octanol/buffer ([1]; n-octanol/phosphate buffer (pH 7.0 or 7.4)): 307 | Brain Uptake (% dose), 2 min ([2]; Table 3.1, rats, iv, 2 min): 0.100 ± 0.068 % dose | Brain Uptake (% dose), 30 min ([2]; Table 3.1, rats, iv, 30 min): 0.07 ± 0.003 % dose | Biodistribution and washout, in words ([2]; rats, iv): cleared from muscle, while liver accumulation increased with time | Blood uptake, 2 min ([2]; rats, iv, 2 min): 4.72 ± 1.37 % dose/organ | Brain uptake, 2 min ([2]; rats, iv, 2 min): 0.10 ± 0.02 % dose/organ | Heart uptake, 2 min ([2]; rats, iv, 2 min): 1.46 ± 0.37 % dose/organ | Kidney uptake, 2 min ([2]; rats, iv, 2 min): 5.67 ± 0.94 % dose/organ | Liver uptake, 2 min ([2]; rats, iv, 2 min): 13.51 ± 0.36 % dose/organ | Lung uptake, 2 min ([2]; rats, iv, 2 min): 6.41 ± 2.04 % dose/organ | Muscle uptake, 2 min ([2]; rats, iv, 2 min): 23.30 ± 3.82 % dose/organ | Skin uptake, 2 min ([2]; rats, iv, 2 min): 2.94 ± 0.36 % dose/organ | Spleen uptake, 2 min ([2]; rats, iv, 2 min): 0.36 ± 0.07 % dose/organ | Blood uptake, 30 min ([2]; rats, iv, 30 min): 2.75 ± 0.62 % dose/organ | Brain uptake, 30 min ([2]; rats, iv, 30 min): 0.06 ± 0.02 % dose/organ | Heart uptake, 30 min ([2]; rats, iv, 30 min): 0.30 ± 0.04 % dose/organ | Kidney uptake, 30 min ([2]; rats, iv, 30 min): 3.10 ± 0.68 % dose/organ | Liver uptake, 30 min ([2]; rats, iv, 30 min): 29.61 ± 2.22 % dose/organ | Lung uptake, 30 min ([2]; rats, iv, 30 min): 2.09 ± 0.47 % dose/organ | Muscle uptake, 30 min ([2]; rats, iv, 30 min): 16.70 ± 3.62 % dose/organ | Skin uptake, 30 min ([2]; rats, iv, 30 min): 4.71 ± 1.27 % dose/organ | Spleen uptake, 30 min ([2]; rats, iv, 30 min): 0.61 ± 0.10 % dose/organ | Blood uptake, 60 min ([2]; rats, iv, 60 min): 2.83 ± 0.42 % dose/organ | Brain uptake, 60 min ([2]; rats, iv, 60 min): 0.046 ± 0.002 % dose/organ | Heart uptake, 60 min ([2]; rats, iv, 60 min): 0.22 ± 0.23 % dose/organ | Kidney uptake, 60 min ([2]; rats, iv, 60 min): 2.87 ± 0.43 % dose/organ | Liver uptake, 60 min ([2]; rats, iv, 60 min): 32.15 ± 3.00 % dose/organ | Lung uptake, 60 min ([2]; rats, iv, 60 min): 1.26 ± 0.06 % dose/organ | Muscle uptake, 60 min ([2]; rats, iv, 60 min): 13.63 ± 0.99 % dose/organ | Skin uptake, 60 min ([2]; rats, iv, 60 min): 4.57 ± 0.65 % dose/organ | Spleen uptake, 60 min ([2]; rats, iv, 60 min): 0.50 ± 0.09 % dose/organ | Blood uptake, 120 min ([2]; rats, iv, 120 min): 2.31 ± 0.27 % dose/organ | Brain uptake, 120 min ([2]; rats, iv, 120 min): 0.025 ± 0.002 % dose/organ | Heart uptake, 120 min ([2]; rats, iv, 120 min): 0.12 ± 0.013 % dose/organ | Kidney uptake, 120 min ([2]; rats, iv, 120 min): 2.74 ± 0.096 % dose/organ | Liver uptake, 120 min ([2]; rats, iv, 120 min): 35.37 ± 1.52 % dose/organ | Lung uptake, 120 min ([2]; rats, iv, 120 min): 0.69 ± 0.061 % dose/organ | Muscle uptake, 120 min ([2]; rats, iv, 120 min): 4.33 ± 1.20 % dose/organ | Skin uptake, 120 min ([2]; rats, iv, 120 min): 2.30 ± 0.082 % dose/organ | Spleen uptake, 120 min ([2]; rats, iv, 120 min): 0.58 ± 0.009 % dose/organ | Cerebellum, 2 min (dopamine transporters; 2 min): 0.066 ± 0.017 % dose/g | Cortex, 2 min (dopamine transporters; 2 min): 0.060 ± 0.009 % dose/g | Hippocampus, 2 min (dopamine transporters; 2 min): 0.046 ± 0.005 % dose/g | ST/CB ratio, 2 min (dopamine transporters; 2 min): 0.82 | Striatum, 2 min (dopamine transporters; 2 min): 0.054 ± 0.010 % dose/g | Cerebellum, 30 min (dopamine transporters; 30 min): 0.027 ± 0.006 % dose/g | Cortex, 30 min (dopamine transporters; 30 min): 0.038 ± 0.007 % dose/g | Hippocampus, 30 min (dopamine transporters; 30 min): 0.028 ± 0.008 % dose/g | ST/CB ratio, 30 min (dopamine transporters; 30 min): 2.2 | Striatum, 30 min (dopamine transporters; 30 min): 0.060 ± 0.011 % dose/g | Cerebellum, 60 min (dopamine transporters; 60 min): 0.018 ± 0.001 % dose/g | Cortex, 60 min (dopamine transporters; 60 min): 0.026 ± 0.002 % dose/g | Hippocampus, 60 min (dopamine transporters; 60 min): 0.025 ± 0.003 % dose/g | ST/CB ratio, 60 min (dopamine transporters; 60 min): 3.5 | Striatum, 60 min (dopamine transporters; 60 min): 0.063 ± 0.001 % dose/g | Cerebellum, 120 min (dopamine transporters; 120 min): 0.011 % dose/g | Cortex, 120 min (dopamine transporters; 120 min): 0.015 % dose/g | Hippocampus, 120 min (dopamine transporters; 120 min): 0.011 % dose/g | ST/CB ratio, 120 min (dopamine transporters; 120 min): 2.8 | Striatum, 120 min (dopamine transporters; 120 min): 0.031 % dose/g

CN1[C@H]2CC[C@@H]1[C@@H](C[N+]13CC[S][99Tc-]14(=[O])[S]CC[N]4CC3)[C@@H](c1ccc(Cl)cc1)C2 (stereo partly shown) [Compound 1.19a]
Partition coefficient (P.C.), 1-octanol/pH 7.0 buffer ([1]; 1-octanol/pH 7.0 phosphate buffer, listed as TRODAT-1): 227 | Biodistribution, Blood, 60 minutes* ([2]; Table 1.2, *unexplained): 6.29 ± 1.12 | Biodistribution, Brain, 60 minutes* ([2]; Table 1.2, *unexplained): 0.12 ± 0.01 | Biodistribution, Heart, 60 minutes* ([2]; Table 1.2, *unexplained): 0.25 ± 0.05 | Biodistribution, Kidney, 60 minutes* ([2]; Table 1.2, *unexplained): 1.76 ± 0.32 | Biodistribution, Liver, 60 minutes* ([2]; Table 1.2, *unexplained): 20.35 ± 0.99 | Biodistribution, Lung, 60 minutes* ([2]; Table 1.2, *unexplained): 1.76 ± 0.12 | Biodistribution, Muscle, 60 minutes* ([2]; Table 1.2, *unexplained): 10.37 ± 0.48 | Biodistribution, Skin, 60 minutes* ([2]; Table 1.2, *unexplained): 4.11 ± 0.29 | Biodistribution, Spleen, 60 minutes* ([2]; Table 1.2, *unexplained): 0.51 ± 0.06 | Biodistribution, Blood, 2 minutes [2, 3]: 4.94 ± 0.46 | Biodistribution, Blood, 60 minutes [2, 3]: 2.14 ± 0.17 | Biodistribution, Brain, 2 minutes [2, 3]: 0.43 ± 0.16 | Biodistribution, Brain, 60 minutes [2, 3]: 0.12 ± 0.00 | Biodistribution, Heart, 2 minutes [2, 3]: 1.47 ± 0.16 | Biodistribution, Heart, 60 minutes [2, 3]: 0.19 ± 0.02 | Biodistribution, Kidney, 2 minutes [2, 3]: 5.13 ± 0.75 | Biodistribution, Kidney, 60 minutes [2, 3]: 3.06 ± 0.14 | Biodistribution, Liver, 2 minutes [2, 3]: 16.62 ± 2.11 | Biodistribution, Liver, 60 minutes [2, 3]: 17.67 ± 3.42 | Biodistribution, Lung, 2 minutes [2, 3]: 6.82 ± 0.37 | Biodistribution, Lung, 60 minutes [2, 3]: 1.86 ± 0.36 | Biodistribution, Muscle, 2 minutes [2, 3]: 10.84 ± 1.95 | Biodistribution, Muscle, 60 minutes [2, 3]: 10.28 ± 1.36 | Biodistribution, Skin, 2 minutes [2, 3]: 2.66 ± 0.35 | Biodistribution, Skin, 60 minutes [2, 3]: 3.96 ± 0.22 | Biodistribution, Spleen, 2 minutes [2, 3]: 0.42 ± 0.16 | Biodistribution, Spleen, 60 minutes [2, 3]: 0.45 ± 0.05 | Brain uptake, 2 min ([2]; rats, iv, 2 min): 0.43 ± 0.16 % dose/organ | Brain uptake, 2 min ([2]; rats, iv, 2 min, listed as TRODAT-1): 0.425 ± 0.120 % dose/organ | Brain uptake, 30 min ([2]; rats, iv, 30 min): 0.232 ± 0.021 % dose/organ | Brain uptake, 60 min ([2]; rats, iv, 60 min): 0.12 ± 0.001 % dose/organ and 0.12 ± 0.00 % dose/organ | ST/CB ratio, 2 min (dopamine transporters; 2 min): 0.93 ± 0.23 | ST/CB ratio, 30 min (dopamine transporters; 30 min): 2.04 ± 0.18 | ST/CB ratio, 30 min (dopamine transporters; 30 min, listed as TRODAT-1): 2.0 | ST/CB ratio, 60 min (dopamine transporters; 60 min): 2.66 and 2.66 ± 0.01 | ST/CB ratio, 120 min (dopamine transporters; 120 min): 3.90 ± 1.33 | ST/CB ratio, 240 min (4 hours) (dopamine transporters; 240 min): 4.07 | ST/CB ratio, 360 min (dopamine transporters; 360 min): 2.97 ± 0.14
